Test results reported in PubChem BioAssay (NCI).
Values joined by “and” are separate entries in the source; they are usually repeats but may differ in a detail not shown here. Equal entries are not always repeated.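 Cultured in 96-well plates, cells were exposed to test compound for 48 hours across five concentrations. GI50: concentration for 50% inhibition of growth. TGI: concentration producing complete growth inhibition.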 Active and inactive are the calls of the source. Cut-off read from the data, not from the text of the source: active = GI50 below about 0.43 µM; inactive = the rest.

Columns and labels:
Assay in all cases: NCI tumour cell line growth inhibition, 48 h
[1] = system: 786-0 renal
[2] = system: OVCAR-3 ovarian
[3] = system: SK-MEL-5 melanoma
[4] = system: MCF7 breast
[5] = system: SK-OV-3 ovarian
[6] = system: NCI-H460 lung
[7] = system: KM12 colon
[8] = system: HCC-2998 colon
[9] = system: HT29 colon

Structure (SMILES) | GI50 [1] | TGI [1] | GI50 [2] | TGI [2] | GI50 [3] | TGI [3] | GI50 [4] | TGI [4] | GI50 [5] | TGI [5] | GI50 [6] | TGI [6] | GI50 [7] | TGI [7] | GI50 [8] | TGI [8] | GI50 [9] | TGI [9] | outcome [4]
CC1(C)N=C(N)N=C(N)N1c1cccc(CCCCc2cccc(S(=O)(=O)F)c2)c1 | 2.12 µM | > 100 µM | 4.29 µM | 27.1 µM | 0.535 µM | 14.8 µM | 0.485 µM | 24.9 µM | 10.9 µM | > 100 µM | 0.327 µM | > 75.7 µM | 0.474 µM | 14.2 µM | 3.17 µM | > 56.3 µM | 0.26 µM | > 100 µM | –
Cc1ccc2c(c1)C(C)Cc1c(ncnc1-n1cnc3ccccc31)N2C (centres undefined) | 0.737 µM | 19.8 µM | 0.313 µM | 10.8 µM | 0.434 µM | 10.2 µM | 0.0986 µM | 13.1 µM | 0.475 µM | 13.5 µM | 0.38 µM | 12 µM | 0.434 µM | 16.6 µM | 1.24 µM | 13.6 µM | 0.34 µM | 12.1 µM | –
CN(C)CCOc1ccc(-c2nc(-c3ccc4c(c3)CC/C4=N\O)c(-c3ccncc3)[nH]2)cc1 | 5.02 µM and 2.22 µM | 9.83 µM and 4.17 µM | 4.42 µM and 4.34 µM | 8.49 µM and 8.94 µM | 3.31 µM and 5.46 µM | 6.81 µM and 19.9 µM | 4.52 µM and 3.55 µM | 9.03 µM and 16.1 µM | 3.67 µM and 9.66 µM | 7.52 µM and 22.1 µM | 4.14 µM and 4.55 µM | 8.24 µM and 17.2 µM | 4.39 µM and 2.65 µM | 8.07 µM and 6.18 µM | 4.74 µM and 8.01 µM | 8.89 µM and > 27.8 µM | 0.127 µM and 0.29 µM | 4.53 µM and 3.49 µM | –
Clc1ncnc(Cl)c1Cl | – | > 100 µM | – | > 100 µM | – | > 100 µM | – | > 100 µM | – | > 100 µM | – | > 100 µM | – | > 100 µM | – | > 100 µM | – | > 100 µM | –
CC(=O)N[C@@H](Cc1ccc(OP(=O)(O)O)cc1)C(=O)N[C@H]1CCC(=O)N2CCC[C@@H](C(=O)NCc3ccc(Cl)cc3)N2C1=O | > 25 µM | > 25 µM | > 25 µM | > 25 µM | > 25 µM | > 25 µM | > 25 µM | > 25 µM | > 25 µM | > 25 µM | > 25 µM | > 25 µM | > 25 µM | > 25 µM | > 25 µM | > 25 µM | > 25 µM | > 25 µM | –
COc1ccc(OC)c(/C=N/NC(=O)Cc2csc3nc(-c4ccc(Br)cc4)cn23)c1 | 26.3 µM | > 100 µM | 15.9 µM | 59 µM | 8.89 µM | 42.5 µM | 29.7 µM | > 100 µM | 57.7 µM | > 100 µM | > 100 µM | > 100 µM | 8.84 µM | > 100 µM | 10 µM | 34.9 µM | 16.4 µM | > 100 µM | –
CC(C)[C@]12O[C@H]1[C@@H]1O[C@]13[C@]1(O[C@H]1C[C@H]1C4=C(CC[C@@]13C)C(=O)OC4)[C@@H]2O | 0.0303 µM | > 100 µM | 0.0198 µM | 0.0932 µM and 0.377 µM | 0.0131 µM | 0.0213 µM and 0.0265 µM | < 0.01 µM | – | – | > 100 µM | < 0.01 µM | > 100 µM | 0.102 µM | – | 0.0212 µM | 0.0912 µM and 0.761 µM | 0.029 µM | > 100 µM | –
CC[C@]1(O)CC(OC2CC(N(C)C)C(O)C(C)O2)c2c(cc3c(c2O)C(=O)c2c(O)cccc2C3=O)[C@@H]1C(=O)OC (some centres undefined) | – | 5.58 µM | – | 5.67 µM | – | 0.941 µM | – | 6.17 µM | – | 2.18 µM | – | 3.46 µM | – | 3.2 µM | – | 1.54 µM | – | 5.09 µM | –
COc1ccc(C2CC(c3cc(OC)c(OC)c(OC)c3)=NO2)cc1OCCCCOc1cc2c(cc1OC)C(=O)N1CCC[C@H]1C=N2 (some centres undefined) | 1.57 µM | 2.99 µM | 1.94 µM | 3.96 µM | 1.47 µM | 2.79 µM | 1.75 µM | 12.3 µM | 3.37 µM | 9.46 µM | 1.85 µM | 4 µM | 1.74 µM | 3.32 µM | 1.58 µM | 3.04 µM | 2.75 µM | 8.38 µM | –
COc1ccc(C(=O)c2cc(OC)c(OC)c(OC)c2)cc1 | – | > 79.2 µM | – | 0.283 µM | – | 26.3 µM | – | > 100 µM | – | > 13.7 µM | – | 17.2 µM | – | > 33.1 µM | – | > 14 µM | – | > 100 µM | –
C=C1C(=O)O[C@H]2[C@H]1CC/C(CNC(=O)Cc1c[nH]c3ccccc13)=C\CC[C@@]1(C)O[C@@H]21 | 1.22 µM | 4.98 µM | 0.386 µM | 1.44 µM | 7.32 µM | 20.3 µM | 0.404 µM | 3.3 µM | 17.6 µM | 31.7 µM | 12 µM | 29.5 µM | 8.44 µM | 21.6 µM | 4 µM | 15.5 µM | 0.451 µM | 11.1 µM | –
COc1ccc2[nH]c(=O)c3c4ccccc4cn3c2c1 | 0.553 µM | 1.95 µM | 0.253 µM | 0.608 µM | 0.377 µM | 1.44 µM | 0.153 µM | 0.969 µM | 0.451 µM | 11.5 µM | 0.19 µM | 1.31 µM | 0.323 µM | 1.65 µM | 0.332 µM | 0.807 µM | 0.375 µM | 1.44 µM | –
Nc1c(C(=O)c2cccc(CCCN3CCOCC3)c2)cnn1-c1ccc(F)cc1 | > 25 µM | > 25 µM | > 25 µM | > 25 µM | 24.7 µM | > 25 µM | > 25 µM | > 25 µM | > 25 µM | > 25 µM | > 25 µM | > 25 µM | > 25 µM | > 25 µM | > 25 µM | > 25 µM | > 25 µM | > 25 µM | –
COC(=O)CCC(=O)C(=O)OC | 33000 µM | – | 28600 µM | – | 94300 µM | – | – | – | 11700 µM | 62000 µM | 34100 µM | – | 27900 µM | – | 25300 µM | 73000 µM | 24200 µM | 85900 µM | inactive
COc1c(C=O)c2c(c(OC)c1OC)-c1ccc(OC)c(=O)cc1[C@@H](NC(C)=O)CC2 | – | > 75.6 µM | – | 1.09 µM | – | 0.272 µM | – | 28.4 µM | – | 23.1 µM | – | 18.7 µM | – | 0.632 µM | – | 34.4 µM | – | > 8.89 µM | –
CCOC(=O)c1ccc2[nH]c(-c3ccc(S(=O)(=O)F)cc3)cc(=O)c2c1 | – | > 100 µM | – | 50.3 µM | – | > 100 µM | – | > 100 µM | – | > 100 µM | – | > 100 µM | – | > 100 µM | – | 40 µM | – | > 100 µM | –
